Our source for the IC50 values is patent publication US11981669B2, “1,7-naphthyridine derivative and preparation method and use therefor” (CSPC ZHONGQI PHARMACEUTICAL TECHNOLOGY (SHIJIAZHUANG) CO., …, priority 2018, dated 2024).

What all share (experiment): PHD enzyme assay (Eu-VBC TR-fluorescence)
What all share (type): biochemical

In one assay the target is PHD2 (Homo sapiens (Human), UniProt Q9GZT9). The method, then:
VHL/elongin B/elongin C were constructed, expressed and purified, and VHL was labeled. PHD1, PHD2 and PHD3 were constructed, expressed and purified. VBC protein was labeled with DELFIA Eu-Labeling Kit. A NeutrAvidin 96-well plate was blocked after the addition of 200 μL Blocker Casein to each well, followed by incubation for 30 min. Each well was washed 3 times by adding 200 μL of washing buffer each time. […] Each well was washed 3 times by adding 200 μL of washing buffer each time. A 1 mM Biotin solution was prepared with Blocker Casein, and 100 μL of the solution was added to each well, followed by incubation for 30 min. Each well was washed 3 times by adding 200 μL of washing buffer each time. A 20× compound solution was prepared with PHD reaction buffer, with the final concentration of DMSO being 1%. […] After mixing homogeneously, the wells were incubated for 60 min. Each well was washed 3 times by adding 200 μL of washing buffer each time A 1 ng/μL Eu-VBC solution was prepared with Eu-VBC binding buffer, and 100 μL of the solution was added to each well, followed by incubation for 60 min. Each well was washed 6 times by adding 200 μL DELFIA Wash Concentrate each time. 100 μL DELFIA Enhancement Solution was added to each well. […] The flurescence of the sample wells was recorded as FLUsample, the flurescence of the full active wells was recorded as FLU100%, and the flurescence of the blank well was recorded as FLU0%.

For a further assay, the target named is PHD3 (Homo sapiens (Human), UniProt Q9H6Z9). The method, then:
(§1) VHL/elongin B/elongin C were constructed, expressed and purified, and VHL was labeled. PHD1, PHD2 and PHD3 were constructed, expressed and purified. VBC protein was labeled with DELFIA Eu-Labeling Kit. A NeutrAvidin 96-well plate was blocked after the addition of 200 μL Blocker Casein to each well, followed by incubation for 30 min. Each well was washed 3 times by adding 200 μL of washing buffer each time. A 200 nM HIF-1a 556-574 solution was prepared with washing buffer, and 100 μL of the solution was added to each well, followed by incubation for 60 min. Each well was washed 3 times by adding 200 μL of washing buffer each time. A 1 mM Biotin solution was prepared with Blocker Casein, and 100 μL of the solution was added to each well, followed by incubation for 30 min. Each well was washed 3 times by adding 200 μL of washing buffer each time. A 20× compound solution was prepared with PHD reaction buffer, with the final concentration of DMSO being 1%. PHD solutions were prepared with PHD reaction buffer, and the concentrations of PHD1, 2, and 3 solutions were 10 ng/μL, 5 ng/μL, and 15 ng/μL, respectively. 95 μL of the PHD solution was added to each compound well, followed by the addition of 5 μL of the compound solution, 95 μL of the PHD solution was added to each full active well, followed by the addition of 5 μL of the PHD reaction buffer; and 100 μL of the PHD reaction buffer was added to each blank well. After mixing homogeneously, the wells were incubated for 60 min. Each well was washed 3 times by adding 200 μL of washing buffer each time A 1 ng/μL Eu-VBC solution was prepared with Eu-VBC binding buffer, and 100 μL of the solution was added to each well, followed by incubation for 60 min. Each well was washed 6 times by adding 200 μL DELFIA Wash Concentrate each time. 100 μL DELFIA Enhancement Solution was added to each well. A microplate reader was used to read TR-Fluorescence at Ex340 and Em615. The flurescence of the sample wells was recorded as FLUsample, the flurescence of the full active wells was recorded as FLU100%, and the flurescence of the blank well was recorded as FLU0%.

The target of a further assay is PHD1 (Homo sapiens (Human), UniProt Q96KS0). The method, then:
as §1

Chain of PHD2 (Q9GZT9 whole entry): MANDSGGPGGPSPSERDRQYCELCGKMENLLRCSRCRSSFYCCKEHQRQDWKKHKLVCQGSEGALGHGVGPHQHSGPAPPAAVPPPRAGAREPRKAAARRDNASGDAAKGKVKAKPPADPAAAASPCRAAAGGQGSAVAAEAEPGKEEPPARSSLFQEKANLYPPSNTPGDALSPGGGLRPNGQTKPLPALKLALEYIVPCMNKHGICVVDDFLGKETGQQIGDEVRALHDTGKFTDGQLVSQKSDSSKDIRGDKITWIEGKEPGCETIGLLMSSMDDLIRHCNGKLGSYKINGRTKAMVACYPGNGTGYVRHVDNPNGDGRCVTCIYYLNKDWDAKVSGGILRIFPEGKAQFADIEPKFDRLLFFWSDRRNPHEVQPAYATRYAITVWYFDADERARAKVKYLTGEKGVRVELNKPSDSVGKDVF
Chain of PHD1 (Q96KS0 whole entry): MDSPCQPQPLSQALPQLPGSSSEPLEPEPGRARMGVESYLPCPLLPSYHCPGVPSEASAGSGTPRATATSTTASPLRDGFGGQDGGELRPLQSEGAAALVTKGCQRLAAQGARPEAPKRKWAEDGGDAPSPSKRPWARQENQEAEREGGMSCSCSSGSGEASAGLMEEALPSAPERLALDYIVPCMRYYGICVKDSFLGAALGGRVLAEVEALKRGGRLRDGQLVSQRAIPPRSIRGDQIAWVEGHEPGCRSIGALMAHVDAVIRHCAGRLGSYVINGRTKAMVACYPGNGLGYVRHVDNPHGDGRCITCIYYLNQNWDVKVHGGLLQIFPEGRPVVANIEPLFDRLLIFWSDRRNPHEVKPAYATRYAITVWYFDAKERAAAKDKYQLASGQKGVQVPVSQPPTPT
Chain of PHD3 (Q9H6Z9 whole entry): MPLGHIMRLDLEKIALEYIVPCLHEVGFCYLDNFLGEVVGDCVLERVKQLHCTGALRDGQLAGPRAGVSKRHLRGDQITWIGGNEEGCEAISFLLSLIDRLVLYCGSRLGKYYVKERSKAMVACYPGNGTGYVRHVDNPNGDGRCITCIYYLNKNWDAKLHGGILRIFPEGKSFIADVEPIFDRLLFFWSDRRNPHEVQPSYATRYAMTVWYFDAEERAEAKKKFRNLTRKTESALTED

By IC50 is commonly meant the concentration that gives 50% inhibition. Read a high IC50 as weaker potency in that assay. `O=C(O)CNC(=O)c1nc(Br)c2cc(Oc3ccccc3)ccc2c1O` [Comparative Example 3, reference compound]: the figures for the IC50 on PHD2, on PHD3 and against PHD1 were 951 nM, 544 nM and 452 nM, respectively.
